Each structure is given as a SMILES string.

The target in one data set is T1, Farnesyl diphosphate synthase (Trypanosoma cruzi, UniProt Q8WS26).
T1 sequence (Q8WS26 whole entry): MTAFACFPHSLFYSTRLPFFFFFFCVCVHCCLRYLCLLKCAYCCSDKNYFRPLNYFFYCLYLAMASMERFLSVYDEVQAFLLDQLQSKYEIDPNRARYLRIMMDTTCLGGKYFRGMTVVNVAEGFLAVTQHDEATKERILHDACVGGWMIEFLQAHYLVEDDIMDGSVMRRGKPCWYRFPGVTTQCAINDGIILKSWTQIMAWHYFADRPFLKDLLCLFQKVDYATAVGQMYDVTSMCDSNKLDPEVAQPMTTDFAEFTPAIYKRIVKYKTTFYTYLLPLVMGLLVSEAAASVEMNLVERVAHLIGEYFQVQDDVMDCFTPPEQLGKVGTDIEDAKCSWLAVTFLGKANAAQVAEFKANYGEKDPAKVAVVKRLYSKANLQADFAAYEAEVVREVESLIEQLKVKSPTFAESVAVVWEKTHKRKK
Kind of data set: Inhibition of Trypanosoma cruzi FPPS using DMAPP as substrate incubated for 30 mins measured by scintillation counting.
Conditions: not given
What is called IC50 is the point on the concentration scale where inhibition reaches its midpoint. Regarding `CCCCCCCCC(F)(P(=O)(O)O)P(=O)(O)O`, the half-maximal inhibitory concentration (IC50) is > 1000 nM.
Same read-out and setting: for `CCCCCCCCCC(F)(P(=O)(O)O)P(=O)(O)O` the value was > 1000 nM.
As for `CCCCCCCCNCC(O)(P(=O)(O)O)P(=O)(O)O`, the half-inhibitory concentration (IC50) was > 10000 nM.
Molecule `CCCCCCNCC(F)(P(=O)(O)O)P(=O)(O)O` had an IC50 of 915 nM.
Consider `CCCCCCCCCNCC(F)(P(=O)(O)O)P(=O)(O)O`, for which the 50% inhibitory concentration (IC50) turned out to be 34 nM.
On the same count and under the same terms, for `CCCCCCCNCC(F)(P(=O)(O)O)P(=O)(O)O` the value was 71 nM.
On the same count and under the same terms, in the case of `CCCCCCCCNCC(F)(P(=O)(O)O)P(=O)(O)O` it was 85 nM.
Turning to `CCCCCCCCCCNCC(F)(P(=O)(O)O)P(=O)(O)O`, the IC50 stood at 136 nM.
The molecule `CCCNCC(F)(P(=O)(O)O)P(=O)(O)O` showed a half-inhibitory concentration (IC50) of 60 nM.
In turn, `CCCCCNCC(F)(P(=O)(O)O)P(=O)(O)O` came in with an IC50 of 611 nM.
For `CCCCNCC(F)(P(=O)(O)O)P(=O)(O)O`, half-maximal inhibition (IC50) was put at 173 nM.

Test system in a further data set: not listed separately
Kind of data set: Cytotoxicity against African green monkey Vero cells assessed as decrease in cell viability after 3 to 4 days by alamar blue assay. The settings on record: chlorocebus sabaeus, read-out: ED50 (the source's name). The class given is cell-based. For orientation: Alamar Blue is a resazurin reagent that responds to reducing activity.
For the molecule `CCCCCCCCCNCC(F)(P(=O)(O)O)P(=O)(O)O`, the CC50 is 15000 nM.
As to `CCCCCCCCNCC(F)(P(=O)(O)O)P(=O)(O)O`, the CC50 worked out at 162000 nM.
On the same count and under the same terms, for `CCCCCCCCCCNCC(F)(P(=O)(O)O)P(=O)(O)O` the value was 20000 nM; for `CCCCCCCCCCCNC(P(=O)(O)O)P(=O)(O)O`, 10000 nM.
On the same count and under the same terms, for `CCCCNCC(F)(P(=O)(O)O)P(=O)(O)O` the value was > 200000 nM.

In another data set the target is T2, Farnesyl diphosphate synthase (Toxoplasma gondii, UniProt Q197X6).
T2 sequence (Q197X6 whole entry): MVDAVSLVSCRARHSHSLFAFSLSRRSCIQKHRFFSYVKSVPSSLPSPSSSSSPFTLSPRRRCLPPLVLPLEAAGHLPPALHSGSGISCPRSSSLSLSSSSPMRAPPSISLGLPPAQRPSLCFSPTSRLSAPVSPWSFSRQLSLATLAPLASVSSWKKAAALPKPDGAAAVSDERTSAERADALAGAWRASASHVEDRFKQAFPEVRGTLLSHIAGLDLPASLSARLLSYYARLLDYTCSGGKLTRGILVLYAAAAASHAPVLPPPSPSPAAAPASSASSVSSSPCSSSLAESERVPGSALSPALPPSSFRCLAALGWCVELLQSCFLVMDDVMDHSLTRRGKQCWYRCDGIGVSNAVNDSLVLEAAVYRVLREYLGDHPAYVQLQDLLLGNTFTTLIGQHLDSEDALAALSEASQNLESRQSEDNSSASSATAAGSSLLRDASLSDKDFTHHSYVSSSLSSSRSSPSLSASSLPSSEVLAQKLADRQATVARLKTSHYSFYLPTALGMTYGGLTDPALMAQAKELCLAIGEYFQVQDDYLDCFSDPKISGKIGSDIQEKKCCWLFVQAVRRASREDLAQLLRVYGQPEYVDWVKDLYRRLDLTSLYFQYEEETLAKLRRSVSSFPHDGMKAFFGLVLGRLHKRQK
The data set is described as follows: Inhibition of Toxoplasma gondii FPPS using DMAPP as substrate incubated for 30 mins measured by scintillation counting.
Conditions: not given
As for `CCCCCCCCCCS(=O)(=O)CC(P(=O)(O)O)P(=O)(O)O`, the concentration for half-maximal inhibition (IC50) was determined as 270 nM.
On the same count and under the same terms, in the case of `CCCCCCNCC(F)(P(=O)(O)O)P(=O)(O)O` it was 131 nM; in that of `CCCCCCCCCNCC(F)(P(=O)(O)O)P(=O)(O)O`, 51 nM.
The same measure, in the same setting: for `CCCCCCCNCC(F)(P(=O)(O)O)P(=O)(O)O` the value was 88 nM; for `CCCCCCCCNCC(F)(P(=O)(O)O)P(=O)(O)O`, 79 nM.
For `CCCCCCCCCCNCC(F)(P(=O)(O)O)P(=O)(O)O`, the IC50 was 80 nM.
In turn, `CCCNCC(F)(P(=O)(O)O)P(=O)(O)O` had an IC50 of 245 nM.
The molecule `CCCCCNCC(F)(P(=O)(O)O)P(=O)(O)O` displayed an IC50 of 299 nM.
Still for that read-out and setting: in the case of `CCCCNCC(F)(P(=O)(O)O)P(=O)(O)O` it was 286 nM.

A further data set deals with Toxoplasma gondii. Kind of data set: Antiparasitic activity against Toxoplasma gondii tachyzoites infected in human TerT cells assessed as decrease in parasite viability by red fluorescent protein based fluorescence method. The format is functional. The settings on record: read-out: ED50 (the source's name).
As for `CCCCCCCCCCCCNCC(P(=O)(O)O)P(=O)(O)O`, the EC50 was 6230 nM.
The same measure, in the same setting: in the case of `CCCCCCCC[S+](C)CC(P(=O)(O)O)P(=O)(O)O` (centres undefined) it was 7000 nM; in that of `CCCCCCCSCC(P(=O)(O)O)P(=O)(O)O`, 970 nM.
Still for that read-out and setting: in the case of `CCCCCCCCCCSCC(P(=O)(O)O)P(=O)(O)O` it was 1800 nM; in that of `CCCCCCNCC(P(=O)(O)O)P(=O)(O)O`, 9400 nM; in that of `CCCCCCCNCC(P(=O)(O)O)P(=O)(O)O`, > 50000 nM.
As for `CCCCCCCCC(F)(P(=O)(O)O)P(=O)(O)O`, the EC50 is 2670 nM.
The same measure, in the same setting: for `CCCCCCCCCC(F)(P(=O)(O)O)P(=O)(O)O` the value was > 10000 nM; for `CCCCCCCCNCC(O)(P(=O)(O)O)P(=O)(O)O`, 2000 nM; for `O=P(O)(O)C(CNC1CCCC1)P(=O)(O)O`, > 20000 nM.
The same measure, in the same setting: in the case of `CCCCCCCCCCS(=O)(=O)CC(P(=O)(O)O)P(=O)(O)O` it was 110 nM.
On the same count and under the same terms, for `O=P(O)(O)C(CNC1CCCCCC1)P(=O)(O)O` the value was > 20000 nM; for `CCCCCCNCC(F)(P(=O)(O)O)P(=O)(O)O`, > 10000 nM; for `CCCCCCCCCCCCS(=O)(=O)CC(P(=O)(O)O)P(=O)(O)O`, 930 nM.
Consider `CCCCCCCCCNCC(F)(P(=O)(O)O)P(=O)(O)O`, for which the EC50 came to 2240 nM.
Turning to `CCCCCCCNCC(F)(P(=O)(O)O)P(=O)(O)O`, the EC50 was > 10000 nM.
Still for that read-out and setting: in the case of `CC1CCC(NCC(P(=O)(O)O)P(=O)(O)O)CC1` (centres undefined) it was > 20000 nM; in that of `CCCCCCCCNCC(F)(P(=O)(O)O)P(=O)(O)O`, 4010 nM; in that of `CCCCCCCCCCCS(=O)(=O)CC(P(=O)(O)O)P(=O)(O)O`, 380 nM.
On the same count and under the same terms, for `CCCCCCCCCCNCC(F)(P(=O)(O)O)P(=O)(O)O` the value was 2260 nM.
Still for that read-out and setting: for `CCCCCCCCCCCSCC(P(=O)(O)O)P(=O)(O)O` the value was 540 nM; for `CCCCCNCC(F)(P(=O)(O)O)P(=O)(O)O`, > 10000 nM.
Regarding `CCCCCCCCCCC[S+]([O-])CC(P(=O)(O)O)P(=O)(O)O` (centres undefined), the EC50 was determined as 530 nM.
Consider `CCCCNCC(F)(P(=O)(O)O)P(=O)(O)O`, for which the EC50 is > 10000 nM.

Another data set concerns Vero. Kind of data set: Cytotoxicity against African green monkey Vero cells assessed as decrease in cell viability at 5 to 10 uM after 3 to 4 days by alamar blue assay. The conditions noted are these: chlorocebus sabaeus. The format is cell-based.
Consider `CCCCCCCCCCCNC(P(=O)(O)O)P(=O)(O)O`, for which the Activity result was “Toxic”.

For a further data set, the system named is Toxoplasma gondii. The data set is described as follows: Antiparasitic activity against Toxoplasma gondii RH tachyzoites infected in ip dosed Webster mouse assessed as increase in survival rate administered daily starting on day 6 post infection for 10 days and measured 30 days post infection (reference value: 9 to 12 days). The format is functional.
Conditions: not given
By ED50 is commonly meant the dose at which the effect has come halfway, by size or by number of responders. With `CCCCCCCCCCS(=O)(=O)CC(P(=O)(O)O)P(=O)(O)O`, the ED50 was 0.02 mg/kg.

For another data set, the system named is Vero. The data set is described as follows: Cytotoxicity against African green monkey Vero cells assessed as decrease in cell viability at 2.5 uM after 3 to 4 days by alamar blue assay. The conditions noted are these: chlorocebus sabaeus. The class given is cell-based.
Take `CCCCCCCCCCCNC(P(=O)(O)O)P(=O)(O)O`: the Activity result is given as “Non-Toxic”.

The next data set relates to Trypanosoma cruzi. The data set is described as follows: Antiparasitic activity against Trypanosoma cruzi amastigote infected in African green monkey Vero cells decrease in parasite viability measured at day 3 of post infection by red fluorescent protein based fluorescence method. The format is functional. The settings on record: 72 h, read-out: ED50 (the source's name).
Take `CCCCCCCSCC(P(=O)(O)O)P(=O)(O)O`: the EC50 is > 20000 nM.
On the same count and under the same terms, in the case of `CCCCCCCNCC(P(=O)(O)O)P(=O)(O)O` it was 10000 nM; in that of `CCCCCCCCC(F)(P(=O)(O)O)P(=O)(O)O`, > 10000 nM; in that of `CCCCCCCCCC(F)(P(=O)(O)O)P(=O)(O)O`, > 10000 nM.
The same measure, in the same setting: for `CCCCCCCCNCC(O)(P(=O)(O)O)P(=O)(O)O` the value was > 10000 nM; for `CCCCCCNCC(F)(P(=O)(O)O)P(=O)(O)O`, > 10000 nM; for `CCCCCCCNCC(F)(P(=O)(O)O)P(=O)(O)O`, > 10000 nM.
Take `CCCCCCCCNCC(F)(P(=O)(O)O)P(=O)(O)O`: the EC50 was > 10000 nM.
Take `CCCNCC(F)(P(=O)(O)O)P(=O)(O)O`: the EC50 was > 10000 nM.
On to `CCCCCNCC(F)(P(=O)(O)O)P(=O)(O)O`, for which the EC50 was > 10000 nM.
On the same count and under the same terms, in the case of `CCCCNCC(F)(P(=O)(O)O)P(=O)(O)O` it was > 10000 nM; in that of `O=C(Cn1ccnc1[N+](=O)[O-])NCc1ccccc1` [BENZNIDAZOLE], 2580 nM.

For the origin of these results see ChEMBL document CHEMBL4385638, “Synthesis and biological evaluation of 1-alkylaminomethyl-1,1-bisphosphonic acids against Trypanosoma cruzi and Toxoplasma gondii” (Bioorg Med Chem, 2019).
